The text below walks through data of patent EP4273147A1, “SUBSTITUTED SPIROLACTAMS, SALTS THEREOF AND THEIR USE AS HERBICIDALLY ACTIVE SUBSTANCES” (Bayer Aktiengesellschaft, priority 2022, dated 2023).

The subject of series [1] is GLXMA. The experiment in a line: Pre-emergence effects on crop plants (Table D4). In kind it is in vivo, Glycine max. The following applies: crop plant; application rate 80 g/ha; visual grading after ca. 3 weeks.
For a further series, the system named is POLCO. Kind of series: Herbicidal pre-emergence action, section C (Table C9). Format: in vivo, Polygonum convolvulus. The conditions noted are these: application rate 320 g/ha; visual grading after ca. 3 weeks.
Series [2] has as its system ECHCG. Kind of series: Herbicidal pre-emergence action, section C (Table C6). The conditions noted are these: application rate 320 g/ha; visual grading after ca. 3 weeks. Format: in vivo, Echinochloa crus-galli.
The test system of series [3] is ZEAMX. Kind of series: Post-emergence effects on crop plants (Table F1). In kind it is in vivo, Zea mays. The conditions noted are these: application rate 320 g/ha, crop plant ZEAMX. From the text: (§1) 2 to 3 weeks after sowing, the test plants were sprayed in the single-leaf stage.
Series [4] relates to SETVI. Kind of series: Herbicidal pre-emergence action (Table A5). Format: in vivo, Setaria viridis. The following applies: visual grading after ca. 3 weeks. In a few lines: (§2)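 Seeds of monocot and dicot weeds were sown in pots of sandy loam and covered with soil. Each pot held a double sowing: one monocotyledonous plus one dicotyledonous species.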
Series [5] concerns DIGSA. The experiment in a line: Herbicidal pre-emergence action, section C (Table C5). Format: in vivo, Digitaria sanguinalis. The conditions noted are these: application rate 320 g/ha; visual grading after ca. 3 weeks.
Series [6] relates to ECHCG. Kind of series: Herbicidal pre-emergence action (Table A2). In kind it is in vivo, Echinochloa crus-galli. The following applies: visual grading after ca. 3 weeks. In a few lines:
as §2

Series [7] has as its system GLXMA. Kind of series: Post-emergence effects on crop plants (Table F4). In kind it is in vivo, Glycine max. The following applies: application rate 320 g/ha, crop plant GLXMA.
Source text: as §1

Series [8] relates to VERPE. Kind of series: Herbicidal pre-emergence action (Table A11). The conditions noted are these: application rate 1280 g/ha; visual grading after ca. 3 weeks. Format: in vivo, Veronica persica. The procedure, abridged:
as §2

In a further series the test system is STEME. The experiment in a line: Herbicidal pre-emergence action (Table A6). Format: in vivo, Stellaria media. The conditions noted are these: application rate 320 g/ha; visual grading after ca. 3 weeks. The procedure, abridged: as §2
For series [9], the system named is TRZAS. The experiment in a line: Pre-emergence effects on crop plants (Table D2). In kind it is in vivo, Triticum aestivum. The following applies: crop plant; application rate 320 g/ha; visual grading after ca. 3 weeks.
For series [10], the system named is ORYZA. Kind of series: Post-emergence effects on crop plants (Table F3). The following applies: application rate 320 g/ha, crop plant ORYZA. In kind it is in vivo, Oryza sativa.
Source text: as §1

Series [11] deals with POAAN. Kind of series: Herbicidal pre-emergence action (Table A7). The conditions noted are these: visual grading after ca. 3 weeks. Format: in vivo, Poa annua. The procedure, abridged:
as §2

Series [12] relates to DIGSA. The experiment in a line: Herbicidal pre-emergence action (Table A12). In kind it is in vivo, Digitaria sanguinalis. The following applies: application rate 320 g/ha; visual grading after ca. 3 weeks. The procedure, abridged: as §2
Series [13] relates to TRZAS. The experiment in a line: Post-emergence effects on crop plants (Table F2). In kind it is in vivo, Triticum aestivum. The conditions noted are these: application rate 320 g/ha, crop plant TRZAS.
Source text: as §1

For series [14], the system named is BRSNW. The experiment in a line: Post-emergence effects on crop plants (Table F5). The following applies: application rate 80 g/ha, crop plant BRSNW. Format: in vivo, Brassica napus.
Source text: as §1

For series [15], the system named is BRSNW. The experiment in a line: Pre-emergence effects on crop plants (Table D5). In kind it is in vivo, Brassica napus. The following applies: crop plant; application rate 320 g/ha; visual grading after ca. 3 weeks.
Source text: Seeds of mono- and dicotyledonous weed plants and crop plants were sown, in plastic or organic planting pots, in sandy loam and covered with soil. The compounds according to the invention, formulated in the form of wettable powders (WP) or as emulsifiable concentrates (EC), were applied to the surface of the covering soil as aqueous suspension or emulsion, with the addition of 0.5% of an additive, at an application rate of 600 1 of water/ha (converted).
Following treatment, the pots were placed in a greenhouse and kept under optimum growth conditions for the test plants.
Series [16] relates to SETVI. Kind of series: Herbicidal pre-emergence action, section C (Table C10). Format: in vivo, Setaria viridis. The following applies: visual grading after ca. 3 weeks.
In series [17] the test system is ORYZA. Kind of series: Pre-emergence effects on crop plants (Table D3). The following applies: crop plant; application rate 320 g/ha; visual grading after ca. 3 weeks.
For series [18], the system named is ALOMY. Kind of series: Herbicidal post-emergence action (Table B2). In kind it is in vivo, Alopecurus myosuroides. The conditions noted are these: application rate 1280 g/ha; rated visually after about 3 weeks. As to the method:
(§3) Seeds of mono- and dicotyledonous weed plants were placed in plastic pots in sandy loam soil (doubly sown with in each case one species of mono- or dicotyledonous weed plants per pot), covered with soil and cultivated in a greenhouse under controlled growth conditions. 2 to 3 weeks after sowing, the test plants were treated at the one-leaf stage. […] After the test plants had been kept in the greenhouse under optimum growth conditions for about 3 weeks, the activity of the preparations was rated visually in comparison to untreated controls. For example, 100% activity = the plants have died, 0% activity = like control plants.

A further series has as its system VIOTR. Kind of series: Herbicidal post-emergence action, section E (Table E10). The conditions noted are these: application rate 320 g/ha; assessed visually after ca. 3 weeks. In kind it is in vivo, Viola tricolor.
Source text: as §1

Series [19] has as its system ALOMY. Kind of series: Herbicidal pre-emergence action (Table A9). Format: in vivo, Alopecurus myosuroides. The following applies: application rate 1280 g/ha; visual grading after ca. 3 weeks. In a few lines: as §2
Series [20] relates to ECHCG. The experiment in a line: Herbicidal post-emergence action, section E (Table E5). The following applies: application rate 320 g/ha; assessed visually after ca. 3 weeks. Format: in vivo, Echinochloa crus-galli.
Source text: as §1

In series [21] the test system is ZEAMX. Kind of series: Pre-emergence effects on crop plants (Table D1). Format: in vivo, Zea mays. The following applies: crop plant; application rate 320 g/ha; visual grading after ca. 3 weeks.
Series [22] relates to VERPE. The experiment in a line: Herbicidal post-emergence action (Table B10). In kind it is in vivo, Veronica persica. The conditions noted are these: application rate 1280 g/ha. In a few lines:
(§4)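 Treated at one-leaf stage (2–3 weeks after sowing in sandy loam, greenhouse-grown). Visual efficacy rating after about 3 weeks; 0% = like controls, 100% = complete kill.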

The test system of series [23] is SETVI. Kind of series: Herbicidal post-emergence action, section E (Table E8). Format: in vivo, Setaria viridis. The conditions noted are these: application rate 80 g/ha; assessed visually after ca. 3 weeks.
Source text: as §1

Series [24] has as its system LOLRI. The experiment in a line: Herbicidal pre-emergence action (Table A3). Format: in vivo, Lolium rigidum. The conditions noted are these: application rate 1280 g/ha, visual grading after ca. 3 weeks. The procedure, abridged: as §2
Series [25] concerns ECHCG. Kind of series: Herbicidal post-emergence action (Table B3). The conditions noted are these: Echinochloa crus-galli, post-emergence, 504 h; application rate 1280 g/ha; rated visually after about 3 weeks; read-out: post-emergence activity against ECHCG. In kind it is in vivo, Echinochloa crus-galli. In a few lines:
as §4

In series [26] the test system is LOLRI. Kind of series: Herbicidal post-emergence action (Table B5). In kind it is in vivo, Lolium rigidum. The conditions noted are these: application rate 1280 g/ha; rated visually after about 3 weeks. As for the experimental part:
as §3

In the next series the test system is KCHSC. The experiment in a line: Herbicidal post-emergence action (Table B4). Format: in vivo, Kochia scoparia. The following applies: application rate 1280 g/ha; rated visually after about 3 weeks. As for the experimental part: as §3
The subject of series [27] is POAAN. Kind of series: Herbicidal post-emergence action (Table B7). In kind it is in vivo, Poa annua. The following applies: application rate 1280 g/ha. The procedure, abridged: as §4
The subject of a further series is AMARE. The experiment in a line: Herbicidal post-emergence action (Table B11). The following applies: application rate 1280 g/ha. Format: in vivo, Amaranthus retroflexus. As to the method: as §3

For the molecule `O=C1N(Cc2cc(F)ccc2Cl)CCCC12CCCN(Cc1cc(F)ccc1Cl)C2=O` (racemic) [I-069], the “pre-emergence activity against GLXMA” value with GLXMA [1] came out at 0%. Moreover, the “pre-emergence activity against POLCO” value in the series on POLCO was found to be 80%. Also, the figures for the “pre-emergence activity against ECHCG” value with ECHCG [2] and in the series with ECHCG [6] (application rate 1280 g/ha) were 80% and 90%, respectively. Moreover, in the series on ZEAMX [3], the “post-emergence activity against ZEAMX” value was 20%. Moreover, the “pre-emergence activity against SETVI” value in the series with SETVI [4] (application rate 320 g/ha) and in the series on SETVI [16] (application rate 320 g/ha) was 100% in each case. Besides, the “pre-emergence activity against DIGSA” value in the series with DIGSA [5] and with DIGSA [12] was 100% in each case. Also, in the series on GLXMA [7], the “post-emergence activity against GLXMA” value came to 20%. The “pre-emergence activity against VERPE” value in the series with VERPE [8] was determined as 90%. For the same molecule, the “pre-emergence activity against STEME” value with STEME is on record as 90%. Besides, in the series with TRZAS [9], the “pre-emergence activity against TRZAS” value was found to be 0%. The “post-emergence activity against ORYZA” value in the series on ORYZA [10] was 0%. The “pre-emergence activity against POAAN” value with POAAN [11] (application rate 320 g/ha) is 100%. In addition, in the series on TRZAS [13], the “post-emergence activity against TRZAS” value was determined as 0%. Also, the “post-emergence activity against BRSNW” value with BRSNW [14] was 0%. The “pre-emergence activity against BRSNW” value in the series on BRSNW [15] turned out to be 0%. In addition, in the series with ORYZA [17], the “pre-emergence activity against ORYZA” value stood at 20%. Moreover, the “post-emergence activity against ALOMY” value in the series with ALOMY [18] amounted to 100%. Further, in the series with VIOTR, the “post-emergence activity against VIOTR” value is 90%.

For the molecule `O=C1N(Cc2cccc(F)c2Cl)CCCC12CCCN(Cc1cccc(F)c1Cl)C2=O` (racemic) [I-047], the “pre-emergence activity against ALOMY” value in the series with ALOMY [19] turned out to be 100%. Moreover, the figures for the “pre-emergence activity against ECHCG” value with ECHCG [2] and in the series with ECHCG [6] (application rate 320 g/ha) were 80% and 90%, respectively. In addition, the “post-emergence activity against ZEAMX” value in the series with ZEAMX [3] turned out to be 10%. Further, the “pre-emergence activity against SETVI” value amounted to 100% with SETVI [4] (application rate 1280 g/ha) and 80% in the series on SETVI [16] (application rate 80 g/ha). In addition, the “post-emergence activity against ECHCG” value in the series with ECHCG [20] is 80%. Further, the “pre-emergence activity against ZEAMX” value in the series on ZEAMX [21] amounted to 20%. Also, the “post-emergence activity against GLXMA” value in the series on GLXMA [7] was 20%. In the series on VERPE [8], the “pre-emergence activity against VERPE” value amounted to 90%. The “post-emergence activity against VERPE” value in the series on VERPE [22] turned out to be 90%. For the same molecule, the “pre-emergence activity against TRZAS” value with TRZAS [9] was found to be 20%. In the series with ORYZA [10], the “post-emergence activity against ORYZA” value was 0%. Further, the “post-emergence activity against SETVI” value in the series with SETVI [23] worked out at 80%. Besides, in the series on POAAN [11] (application rate 1280 g/ha), the “pre-emergence activity against POAAN” value is 100%. Also, the “pre-emergence activity against LOLRI” value in the series on LOLRI [24] is reported as 90%. The “post-emergence activity against TRZAS” value in the series with TRZAS [13] is on record as 20%. Also, in the series with BRSNW [14], the “post-emergence activity against BRSNW” value came out at 20%. Also, in the series with BRSNW [15], the “pre-emergence activity against BRSNW” value turned out to be 20%. Also, the “pre-emergence activity against ORYZA” value in the series on ORYZA [17] came out at 0%. Moreover, the “post-emergence activity against VIOTR” value in the series on VIOTR came to 80%.

For the molecule `O=C1N(Cc2cccnc2C(F)(F)F)CCCC12CCCN(Cc1cccnc1C(F)(F)F)C2=O` [I-184, (+)-2,8-bis{[2-(trifluoromethyl)pyridin-3-yl]methyl}-2,8-diazaspiro[5.5]undecane-1,7-dione], the pest or weed control at 1280 g/ha with ECHCG [25] came out at 90%; with LOLRI [24] (Lolium rigidum, pre-emergence, 504 h, read-out: pre-emergence activity against LOLRI), 90%. Besides, the “post-emergence activity against LOLRI” value with LOLRI [26] is 90%. For the same molecule, in the series with ECHCG [6] (application rate 1280 g/ha), the “pre-emergence activity against ECHCG” value amounted to 100%. Further, the “post-emergence activity against VERPE” value in the series with VERPE [22] is reported as 90%. Besides, the “post-emergence activity against KCHSC” value in the series with KCHSC stood at 90%. In addition, the “post-emergence activity against POAAN” value in the series with POAAN [27] came out at 90%. For the same molecule, the “post-emergence activity against AMARE” value in the series on AMARE stood at 90%.
